PMC7473970, “Preformulation Studies of a Stable PTEN-PDZ Lipopeptide Able to Cross an In Vitro Blood-Brain-Barrier Model as a Potential Therapy for Alzheimer’s Disease” (Pharmaceutical Research, 2020)
Residues, ends and D or L forms follow the SMILES beside them.

Legend:
[1] = In vitro stability in 50% liver homogenate; type: in vitro ADME, mouse; details: 37°C, HPLC-UV 220 nm, one phase decay, least square fit, n = 3
Protocol: (§1) The samples were analyzed at 40°C on a Phenomenex Lichrosorb RP8 C8 column (4.0 mm × 250 mm, 5 μm), using the gradient elution method on an Agilent HPLC system (Agilent Technologies, Cheadle, UK) equipped with an 1100 series degasser, quaternary pump, autosampler, and column heater, and attached to an Agilent 1200 series PDA detector and a 1250 series fluorescent detector. The flow rate was set at 1.2 mL min^-1, and the injection volume was set at 40 μL, while detection was performed at 220 nm. The mobile phase was a mixture of mobile phase A (0.1% TFA in water) and phase B (0.08% TFA in acetonitrile), and in the first 5 min, the mobile phase was an 8:2 ratio of A:B (v/v) and from 5 to 15 min the percentage of B was raised from 8:2 to 1:9 (v/v). Linear calibration curves were constructed for both peptides between 0.1–100 μg.mL^−1. The retention time for the human Lau–PTEN-PDZ, mouse Lau–PTEN-PDZ, human Myr–PTEN-PDZ, and mouse Myr–PTEN-PDZ was 12.03, 11.60, 13.68, and 13.91, respectively.
(§2) The liver and brain of the mice were excised from […] CD-1 male mice (7 weeks-old: Charles River Laboratories) sacrificed with CO2, and the tissue was frozen immediately with liquid nitrogen prior to storage at −80°C. The liver and brain tissue were thawed and homogenized on ice in PBS (2 mL/g of tissue) using a glass 3 mL tissue homogenizer (20 strokes per sample), and the liver and brain homogenates were centrifuged (Heraeus Multifuge 3sf, Fisher Scientific, Basingstoke, UK) at 4300 g for 60 min at 4°C and at 3000 g for 20 min at 4°C, respectively. The supernatant was stored at −80°C, diluted 1:1 (v/v) with PBS (1x, pH 7.4), and used in stability studies. Peptides stocks (5 mM in DMSO) were prepared and maintained at −20°C prior to performing stability studies. These stock solutions (120 μL) were added to the diluted pre-warmed (37°C) liver or brain homogenate (50% v/v, 1080 μL) with agitation (100 rpm: Grant Aqua Waterbath), and samples (80 μL) were taken at 0, 5, 10, 15, 30, 45, 60, 90, 120, 180, 240, 360 and 1440 min, and diluted with ice-cold acetonitrile (80 μL). Samples were vortexed and left at −80°C at least overnight to allow for maximum protein precipitation, the samples were vortexed again for 15 min, centrifuged and the supernatant was analyzed by HPLC as described above.
(§3) The total protein concentration in the homogenates was determined using the Bradford protein assay ([7],[15]) and BSA as a standard. Ten stock solutions of BSA were prepared in PBS between 0.1–1 mg mL^−1, and 40 μL of each of the diluted stocks were added to 1.2 mL of Bradford reagent and incubated at room temperature for 5 min. The absorbance was recorded at 595 nm using a Multiskan GO spectrophotometer and the SkanIt software (Thermo Scientific, Paisley, UK). A linear calibration curve was obtained in this range that was used to extrapolate the protein content of 1:100 v/v stock solutions of 50% mouse plasma, liver, and brain homogenates diluted in PBS.

[2] = In vitro stability in simulated intestinal fluid (mouse intestinal wash); type: in vitro ADME; details: 120 μL of 5 mM DMSO stock in 1080 μL, 37°C, 0-1440 min, HPLC-UV 220 nm, n = 3
Protocol: as §1
The duodenum and ileum were excised from 10 non-fasted CD-1 male mice (7 weeks-old: Charles River Laboratories) that were sacrificed with CO2. Each duodenum and ileum were washed with 6 ml of phosphate buffer (50 mM, pH 6.63), and all the washes were pooled prior to centrifugation at 4000 rpm for 15 min at 4°C (Heraeus Multifuge 3sf) ([7],[15]). The intestinal wash was removed and frozen at −80°C prior to using it in stability studies without further dilution. Peptides stocks (5 mM in DMSO) were prepared and maintained at −20°C prior to performing stability studies. A stock peptide solution (120 μL) was added to the diluted pre-warmed (37°C) intestinal wash (1080 μL) with agitation at 100 rpm (Grant Aqua Waterbath), and samples (80 μL) were taken at 0, 15, 30, 45, 60, 90, 120, 180, 240, 360 and 1440 min, and diluted with ice-cold glacial acetic acid (17.5 M): acetonitrile (5:95 v/v, 80 μL) to quench the enzyme activity. Samples were vortexed and left in −80°C at least overnight to maximize protein precipitation, and after vortexing again for 15 min and centrifuging, the supernatant was analyzed by HPLC as described above.

[3] = In vitro stability in 50% brain homogenate; type: in vitro ADME, mouse; details: 37°C, HPLC-UV 220 nm, one phase decay, least square fit, n = 3
Protocol: as §1, §2, §3

[4] = 50% w/v mouse liver homogenate in PBS pH 7.4
[5] = Simulated intestinal fluid = undiluted pooled CD-1 mouse duodenum/ileum wash, phosphate buffer pH 6.63, one phase decay fit
[6] = 50% w/v mouse brain homogenate in PBS pH 7.4

k ([1]; 50% w/v CD-1 mouse liver homogenate in PBS pH 7.4, 120 μL of 5 mM DMSO stock in 1080 μL, 100 rpm, 0-1440 min): 0.51 h⁻¹
t1/2 (h) [1, 4]: 1.36 h
t1/2 (min) [1, 4]: 81.66 min
k ([2]; Simulated intestinal fluid = undiluted pooled CD-1 mouse duodenum/ileum wash in 50 mM phosphate buffer pH 6.63, 100 rpm, one phase decay, least square fit): 0.15 h⁻¹
t1/2 (h) [2, 5]: 4.52 h
t1/2 (min) [2, 5]: 271.02 min
k ([3]; 50% w/v CD-1 mouse brain homogenate in PBS pH 7.4, 120 μL of 5 mM DMSO stock in 1080 μL, 100 rpm, 0-1440 min): 2.71 h⁻¹
t1/2 (h) [3, 6]: 0.25 h
t1/2 (min) [3, 6]: 15.32 min
SMILES: CCCCCCCCCCCCCC(=O)N[C@@H](CCC(N)=O)C(=O)N[C@@H](Cc1c[nH]cn1)C(=O)N[C@@H](CO)C(=O)N[C@@H](CCC(N)=O)C(=O)N[C@H](C(=O)N[C@H](C(=O)N[C@@H](CCCCN)C(=O)N[C@H](C(=O)O)C(C)C)[C@@H](C)O)[C@@H](C)CC [Mouse Myr-PTEN-PDZ] (HELM PEPTIDE1{[CCCCCCCCCCCCCC(=O)[*:2]].Q.H.S.Q.I.T.K.V}$$$$V2.0)
